Measured values taken from patent US20220354957A1, “PEPTIDES TARGETING MACROPHAGES, AND CONJUGATES, COMPOSITIONS, AND USES THEREOF” (Twinpig Biolab, Inc., priority 2021, published 2022).

Columns and labels:
Type in all cases: cell-based, human
[1] = Cell viability test (CCK-8) of dKLA-conjugated alanine-substituted peptides
Experimental: (§1) THP-1 monocytes were differentiated into macrophages (M0) by 24 h incubation with 100 nM phorbol 12-myristate 13-acetate (PMA, Sigma) followed by 24 h incubation in RPMI medium (Invitrogen). Macrophages were polarized in M1 macrophages (M1) by incubation with 20 ng/ml of IFN-γ (Prospec) and 100ng/m1 of LPS (Sigma). Macrophage M2 polarization(M2) was obtained by incubation with 20 ng/ml of interleukin (IL) 4 (Prospec) and 20 ng/ml of interleukin 13 (Pro spec).
(§2) Polarized cells were treated with 1.5 μM MpepK, A12K, A14K, A17K, A18K, A22K, A25K or A26K peptides for 1 hour and further incubated in RPMI1640 growth medium for 24 hours. Cell viability was analyzed using the CCK-8 assay: CCK-8 reagent (Enzo Life Sciences) was added to each well; incubation was continued for 2 hours, and absorbance was measured at 450 nm with a microplate reader (Molecular Devices).
(§3) THP-1 cells (1×10^4 cells/well) were differentiated into macrophages with 100 nM PMA (MO) for 24 h and polarized into classical M1 macrophages by treatment of IFN-γ (20 ng/ml) and LPS (100 ng/ml) and LPS-stimulated macrophages (LPS-M1) were induced by LPS (1 m/ml) treatment for 24h. Cells were treated with 1.5 μM of A26K for 1 hour and further incubated in RPMI1640 growth medium for 24 hours. Cell viability was analyzed using the CCK-8 assay. CCK-8 reagent was added to each well and incubated for 1.5-2 hours. Absorbance was measured at 450 nm with a microplate reader.

M1 macrophages = experiment: as above; settings: 1.5 μM, 1 hour then 24 hours, CCK-8, compared to control M1 macrophage
Experimental: as §1, §2, §3

LPS-M1 macrophages = experiment: Expression of pro-inflammatory genes in in vitro sepsis model (real-time quantitative PCR); settings: 1.5 μM for 1 h, compared to LPS-M1 macrophages
Experimental: THP-1 cells (2×10^5 cells/well) were differentiated into macrophages with 100 nM PMA (MO) for 24h and polarized into classical M1 macrophages by treatment of IFN-γ (20 ng/ml) and LPS (100 ng/ml) and LPS-M1 macrophages were induced by LPS (1 m/ml) treatment for 2 h. Polarized cells were treated with 1.5 μM of A26K for 1 hour and further incubated in RPMI1640 growth medium for 24 hours. Expression levels of pro-inflammatory genes (IL-8, TNF-α, NF-kB, IL-1(3 and CXCL10) were quantified by real-time quantitative PCR.

[2] = Cytotoxicity in in vitro sepsis model (CCK-8); settings: compared to control, read-out: inhibition (cytotoxic effect) in LPS-M1 macrophages
Experimental: as §3

CC[C@H](C)[C@H](NC(=O)[C@H](CC(C)C)NC(=O)[C@H](C)NC(=O)[C@@H]1CCCN1C(=O)[C@H](CC(C)C)NC(=O)CNC(=O)[C@@H](NC(=O)[C@@H](NC(=O)[C@H](CC(C)C)NC(=O)[C@@H](NC(C)=O)C(C)C)[C@@H](C)O)[C@@H](C)O)C(=O)N[C@@H](CO)C(=O)N[C@@H](Cc1c[nH]c2ccccc12)C(=O)N[C@H](C(=O)N[C@@H](CCCCN)C(=O)N[C@@H](CCCNC(=N)N)C(=O)N[C@@H](CCCCN)C(=O)N[C@@H](CCCNC(=N)N)C(=O)N[C@@H](CCC(N)=O)C(=O)N[C@@H](C)C(=O)NCC(=O)NCC(=O)NCC(=O)NCC(=O)N[C@@H](CO)C(=O)N[C@H](CCCCN)C(=O)N[C@H](CC(C)C)C(=O)N[C@H](C)C(=O)N[C@H](CCCCN)C(=O)N[C@H](CC(C)C)C(=O)N[C@H](C)C(=O)N[C@H](CCCCN)C(=O)N[C@H](CCCCN)C(=O)N[C@H](CC(C)C)C(=O)N[C@H](C)C(=O)N[C@H](CCCCN)C(=O)N[C@H](CC(C)C)C(=O)N[C@H](C)C(=O)N[C@H](CCCCN)C(=O)O)[C@@H](C)CC [A26K]
cytotoxicity ([1]; 1.5 μM, compared to control, read-out: inhibition of viability in M1 macrophages): 53%
IC50 ([1]; 0.01-10 μM, read-out: cytotoxicity IC50 in M1 macrophages): 1190 nM
cytotoxic effect in M1 macrophages (M1 macrophages): great significant selective cytotoxic effect
expression levels of IL8, TNF-α, IL-1β, NF-kB and CXCL10 enhanced by LPS stimulation (LPS-M1 macrophages): significantly inhibited
inhibition at 1.5 µM [2]: 37%
